Laboratory results taken from paper PMC4128413 (Tetrahedron letters, 2014).
One block for each compound: values may come before it.

Columns and labels:
[1] = tested on: Leishmania donovani MHOM-ET-67/L82 strain; test: Antiprotozoal activity against L. donovani; assay type: cell-based; settings: read-out: IC50 L. donovani
schistosomiasis parasite = settings: cited from earlier work
Cytotoxicity = assay type: cell-based; settings: rat

IC50 [1]: 0.34 µM
Compound: CCCCCCCCCCCCCCCCOP(=O)([O-])OCC[N+](C)(C)C [Miltefosine]

Compound: O=C(C1CCC(O)CC1)N1CC(=O)N2CCc3ccccc3C2C1 (stereo not drawn) [Compound 2]
antischistosomal effectiveness relative to praziquantel (1) (in words) (schistosomiasis parasite): equal to or considerably less effective than the parent drug

Compound: COc1cc([C@@H]2c3cc4c(cc3[C@H](O)[C@H]3COC(=O)[C@H]23)OCO4)cc(OC)c1OC [Podophyllotoxin]
IC50 (Cytotoxicity): 0.0072 µM
